One test deals with Staphylococcus aureus. Description: Antibacterial activity against Staphylococcus aureus ATCC 25923 incubated for 18 hrs by agar dilution method. The format is functional. (In agar dilution the substance is mixed into plates at graded concentrations.)
Test [1] has as its system Rattus norvegicus. Description: Anti-inflammatory activity in Wistar rat assessed as inhibition of carrageenan-induced paw edema at 10 mg/kg, ip pretreated for 1 hr followed by carrageenan challenge and measured after 2 hr relative to control (reference value: 0.00 +/-0.03 %). The format is functional. The settings on record: time 3 hrs.
The subject of a further test is MCF7. Description: Antiproliferative activity against human MCF7 cells assessed as inhibition of cell growth after 72 hrs by MTT assay. In kind it is functional, cell-based. The settings on record: MCF7, 72 h. Background: Tetrazolium dyes change colour on reduction, which living cells bring about.
For test [2], the system named is Rattus norvegicus. Description: Anti-inflammatory activity in Wistar rat assessed as inhibition of carrageenan-induced paw edema at 10 mg/kg, ip pretreated for 1 hr followed by carrageenan challenge and measured after 24 hr relative to control (reference value: 0.00 +/-0.3 %). The format is functional. The settings on record: time 25 hrs. (In general: The carrageenan paw model is a standard test of acute inflammation.)

Test [3] deals with Rattus norvegicus. Description: Antiinflammatory activity in Wistar rat model of carrageenan-induced paw edema assessed as reduction in thickness of paw edema at 10 mg/kg, ip pretreated for 1 hr followed by carrageenan challenge and measured after 2 hrs (reference value: 2.06 +/-0.09 mm). The format is functional. The settings on record: time 3 hrs.
The test system of test [4] is Rattus norvegicus. The experiment in a line: Antiinflammatory activity in Wistar rat model of carrageenan-induced paw edema assessed as reduction in thickness of paw edema at 10 mg/kg, ip pretreated for 1 hr followed by carrageenan challenge and measured after 1 hr (reference value: 2.41 +/-0.05 mm). The format is functional. The settings on record: time 1 hr after carrageenan.

The test system of test [5] is Peritoneal macrophage. Description: Antiinflammatory activity in […] mouse Peritoneal macrophages assessed as reduction in LPS-induced NO production by measuring reduction in stimulation index at 10 uM preincubated for 1 hr followed by LPS stimulation measured after 24 hrs by Griess method (reference value: 27.31 +/- 2.56 uM). The format is functional. As to conditions: time 25 hrs.

The test system of test [6] is Rattus norvegicus. The experiment in a line: Antiinflammatory activity in Wistar rat model of carrageenan-induced paw edema assessed as reduction in thickness of paw edema at 10 mg/kg, ip pretreated for 1 hr followed by carrageenan challenge and measured after 3 hrs (reference value: 1.79 +/-0.07 mm). The settings on record: time 4 hrs. In kind it is functional.
In test [7] the test system is Rattus norvegicus. Description: Antiinflammatory activity in Wistar rat model of carrageenan-induced paw edema assessed as reduction in thickness of paw edema at 10 mg/kg, ip pretreated for 1 hr followed by carrageenan challenge and measured after 24 hrs (reference value: 0.83 +/-0.08 mm). As to conditions: time 25 hrs. In kind it is functional.
A further test concerns PC-3. The experiment in a line: Antiproliferative activity against human PC3 cells assessed as inhibition of cell growth after 72 hrs by MTT assay. The settings on record: PC-3, 72 h. The format is functional, cell-based.
The test system of test [8] is Rattus norvegicus. The experiment in a line: Anti-inflammatory activity in Wistar rat assessed as inhibition of carrageenan-induced paw edema at 10 mg/kg, ip pretreated for 1 hr followed by carrageenan challenge and measured after 4 hr relative to control (reference value: 0.00 +/-0.4 %). The format is functional. The settings on record: time 5 hrs.
For test [9], the system named is Splenocyte. The experiment in a line: Immunomodulatory activity in Swiss albino mouse splenocytes assessed as cell viability at 10 uM by measuring inhibition of stimulation index incubated for 72 hrs in presence of mitogenic stimulus phytohaemagglutinin by MTT assay relative to indomethacin. In kind it is functional. The settings on record: read-out: Activity.
The test system of a further test is Salmonella typhimurium. The experiment in a line: Antibacterial activity against Salmonella typhimurium ATCC 19430 incubated for 18 hrs by agar dilution assay. In kind it is functional, Salmonella enterica subsp. enterica serovar Typhimurium. The settings on record: Salmonella enterica.
Test [10] deals with Rattus norvegicus. Description: Anti-inflammatory activity in Wistar rat assessed as inhibition of carrageenan-induced paw edema at 10 mg/kg, ip pretreated for 1 hr followed by carrageenan challenge and measured after 4 hr relative to indomethacin. In kind it is functional. As to conditions: time 5 hrs.
Another test has as its system Streptococcus pyogenes. The experiment in a line: Antibacterial activity against Streptococcus pyogenes ATCC 19615 incubated for 18 hrs by agar dilution method. In kind it is functional.
In test [11] the test system is Rattus norvegicus. Description: Anti-inflammatory activity in Wistar rat assessed as inhibition of carrageenan-induced paw edema at 10 mg/kg, ip pretreated for 1 hr followed by carrageenan challenge and measured after 3 hr relative to control (reference value: 0.00 +/-0.1 %). In kind it is functional. The settings on record: time 4 hrs.
The subject of the next test is Candida albicans. Description: Antifungal activity against Candida albicans incubated for 18 to 24 hrs by CLSI method. In kind it is functional. As to conditions: time 18-24 hrs.
A further test concerns A549. The experiment in a line: Antiproliferative activity against human A549 cells assessed as inhibition of cell growth after 72 hrs by MTT assay. In kind it is functional, cell-based. As to conditions: A549, 72 h.
Test [12] relates to Rattus norvegicus. Description: Anti-inflammatory activity in Wistar rat assessed as inhibition of carrageenan-induced paw edema at 10 mg/kg, ip pretreated for 1 hr followed by carrageenan challenge and measured after 1 hr relative to control (reference value: 0.00 +/-0.02 %). The format is functional. The settings on record: time 2 hrs.
For the next test, the system named is Pseudomonas aeruginosa. The experiment in a line: Antibacterial activity against Pseudomonas aeruginosa ATCC 27853 incubated for 18 hrs by agar dilution assay. The format is functional.
The subject of test [13] is Splenocyte. Description: Immunomodulatory activity in Swiss albino mouse splenocytes assessed as cell viability at 10 uM by measuring stimulation index incubated for 72 hrs in presence of mitogenic stimulus phytohaemagglutinin by MTT assay (reference value: 1.00 +/- 0.24). The format is functional.
Test [14] concerns Rattus norvegicus. The experiment in a line: Antiinflammatory activity in Wistar rat model of carrageenan-induced paw edema assessed as reduction in thickness of paw edema at 10 mg/kg, ip pretreated for 1 hr followed by carrageenan challenge and measured after 4 hrs (reference value: 1.40 +/-0.10 mm). In kind it is functional. The settings on record: time 5 hrs.
The subject of test [15] is Peritoneal macrophage. Description: Antiinflammatory activity in […] mouse Peritoneal macrophages assessed as inhibition of LPS-induced NO production at 10 uM preincubated for 1 hr followed by LPS stimulation measured after 24 hrs by Griess method relative to control (reference value: 0.0 %). The format is functional. On the set-up: scale not given: the % may be the effect or the level left. The settings on record: time 25 hrs.

“And” between values parts separate entries of the source, which are not always exact repeats. Equal values may be shown once.

Turning to `CC[C@H](C)[C@H](N)C(=O)Oc1ccc(/C=C/C(=O)/C=C(O)/C=C/c2ccc(OC(=O)[C@@H](N)[C@@H](C)CC)c(OC)c2)cc1OC.Cl.Cl`, the MIC – broadly, the least concentration at which growth counts as inhibited – with Staphylococcus aureus is 0.25 µg/mL and 0.374 µM; in the test with Salmonella typhimurium, 0.125 µg/mL and 0.187 µM; against Streptococcus pyogenes, 0.5 µg/mL and 0.749 µM; in the test on Candida albicans, 0.125 µg/mL and 0.187 µM; in the test with Pseudomonas aeruginosa, 0.25 µg/mL and 0.374 µM. Besides, the inhibition in vivo (as a rule, the percentage by which the read-out fell short of the control) at 10 mg/kg in the test with Rattus norvegicus [1] was found to be 36%; in the test with Rattus norvegicus [2], 30%; with Rattus norvegicus [8], 76%; with Rattus norvegicus [10], 87%; in the test on Rattus norvegicus [11], 47%; in the test on Rattus norvegicus [12] it was 33%. Moreover, the IC50 (as a rule, the concentration that inhibits the measured activity by half) came to 10.2 µM in the test on MCF7, 34.4 µM in the test on PC-3 and 20.9 µM in the test with A549. Moreover, the Activity amounted to 1.31 mm in the test with Rattus norvegicus [3]; 1.61 mm in the test on Rattus norvegicus [4]; 17.63 µM in the test on Peritoneal macrophage [5]; 0.94 mm in the test with Rattus norvegicus [6]; 0.58 mm with Rattus norvegicus [7]; 0.34 mm with Rattus norvegicus [14]. Besides, the Activity in the test on Peritoneal macrophage [15] was found to be 35.45%. Also, the viability at 10 µM in the test with Splenocyte [9] turned out to be 76%. Besides, the Activity_index with Splenocyte [13] was 1.59.

For `COc1cc(/C=C/C(=O)/C=C(O)/C=C/c2ccc(OC(=O)[C@H](C)N)c(OC)c2)ccc1OC(=O)[C@H](C)N.Cl.Cl`, the MIC is 0.5 µg/mL and 0.857 µM against Staphylococcus aureus; 0.5 µg/mL and 0.857 µM against Salmonella typhimurium; 0.5 µg/mL and 0.857 µM against Streptococcus pyogenes; 0.5 µg/mL and 0.857 µM in the test on Candida albicans; 0.25 µg/mL and 0.428 µM in the test with Pseudomonas aeruginosa. Moreover, the inhibition in vivo at 10 mg/kg in the test on Rattus norvegicus [1] turned out to be 42%; with Rattus norvegicus [2], 16%; in the test on Rattus norvegicus [8], 66%; in the test with Rattus norvegicus [10], 76%; in the test on Rattus norvegicus [11] it was 53%; with Rattus norvegicus [12] it was 37%. Further, the results for the IC50 with MCF7, with PC-3 and with A549 were 10.7 µM, 31.5 µM and 21.7 µM, respectively. Moreover, the Activity in the test with Rattus norvegicus [3] was found to be 1.19 mm; with Rattus norvegicus [4] it was 1.51 mm; in the test with Peritoneal macrophage [5], 14.68 µM; in the test on Rattus norvegicus [6] it was 0.85 mm; in the test with Rattus norvegicus [7], 0.7 mm; in the test on Rattus norvegicus [14], 0.47 mm. In addition, the Activity in the test with Peritoneal macrophage [15] stood at 46.24%. Also, in the test on Splenocyte [9], the viability at 10 µM is 106%. The Activity_index with Splenocyte [13] worked out at 1.14.

Consider `COc1cc(/C=C/C(=O)/C=C(O)/C=C/c2ccc(OC(=O)C(C)N)c(OC)c2)ccc1OC(=O)C(C)N.Cl.Cl` (configuration not stated), for which the MIC is 0.125 µg/mL and 0.214 µM against Staphylococcus aureus; 0.25 µg/mL and 0.428 µM with Salmonella typhimurium; 0.25 µg/mL and 0.428 µM in the test on Streptococcus pyogenes; 1 µg/mL and 1.71 µM in the test on Candida albicans; 0.5 µg/mL and 0.857 µM against Pseudomonas aeruginosa. The inhibition in vivo at 10 mg/kg worked out at 54% in the test on Rattus norvegicus [1]; 28% in the test on Rattus norvegicus [2]; 84% in the test on Rattus norvegicus [8]; 97% in the test on Rattus norvegicus [10]; 55% in the test on Rattus norvegicus [11]; 54% in the test with Rattus norvegicus [12]. Further, the IC50 in the test on MCF7 came out at 9.79 µM; with PC-3, 21.7 µM; in the test with A549, 22.2 µM. The Activity was 0.94 mm in the test on Rattus norvegicus [3]; 1.11 mm in the test on Rattus norvegicus [4]; 19.75 µM in the test on Peritoneal macrophage [5]; 0.81 mm in the test on Rattus norvegicus [6]; 0.6 mm in the test on Rattus norvegicus [7]; 0.22 mm with Rattus norvegicus [14]. In the test with Peritoneal macrophage [15], the Activity came to 27.69%. For the same compound, in the test with Splenocyte [9], the viability at 10 µM was 63.2%. For the same compound, in the test with Splenocyte [13], the Activity_index worked out at 1.91.

With `COc1cc(/C=C/C(=O)/C=C(O)/C=C/c2ccc(OC(=O)[C@@H](N)C(C)C)c(OC)c2)ccc1OC(=O)[C@@H](N)C(C)C.Cl.Cl`, the MIC in the test on Staphylococcus aureus is 0.25 µg/mL and 0.391 µM; against Salmonella typhimurium, 0.125 µg/mL and 0.195 µM; against Streptococcus pyogenes, 0.125 µg/mL and 0.195 µM; against Candida albicans, 0.125 µg/mL and 0.195 µM; in the test on Pseudomonas aeruginosa, 0.25 µg/mL and 0.391 µM. Moreover, the inhibition in vivo at 10 mg/kg in the test with Rattus norvegicus [1] was 50%; in the test on Rattus norvegicus [2], 14%; in the test with Rattus norvegicus [8], 46%; in the test on Rattus norvegicus [10], 53%; with Rattus norvegicus [11], 48%; in the test with Rattus norvegicus [12], 60%. Moreover, the IC50 worked out at 10.4 µM with MCF7, 34.6 µM in the test with PC-3 and 20.4 µM with A549. In addition, the Activity in the test with Rattus norvegicus [3] was 1.4 mm; in the test on Rattus norvegicus [4], 0.97 mm; with Peritoneal macrophage [5], 20.65 µM; with Rattus norvegicus [6], 0.93 mm; in the test on Rattus norvegicus [7], 0.71 mm; in the test on Rattus norvegicus [14] it was 0.75 mm. The Activity with Peritoneal macrophage [15] stood at 24.37%. For the same compound, the viability at 10 µM in the test with Splenocyte [9] was 59%. Moreover, the Activity_index with Splenocyte [13] is 2.05.

These data come from ChEMBL document CHEMBL4765295, “Synthesis, pharmacological profile and 2D-QSAR studies of curcumin-amino acid conjugates as potential drug candidates” (Eur J Med Chem, 2020).
